The results in this text go back to PubChem BioAssay (NCI).

Some test systems named below: HCC-2998 colon; HCT-15 colon; HL-60(TB) leukemia; MCF7 breast; NCI-H460 lung; BT-549 breast; M14 melanoma; MDA-MB-231 breast; PC-3 prostate; SR leukemia.
Holding throughout (assay): DTP human tumour cell line panel, 48 h

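Where inhibition never reached the appropriate level, the endpoint shown equals the highest concentration tested. Otherwise, values were interpolated linearly from a five-concentration, 48-hour dose response in 96-well plates. Here, GI50 denotes the concentration required for 50% inhibition of growth. The concentration for full growth arrest is given as TGI.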

As a reminder, the TGI is the concentration at which net growth stops. High values mean less potent growth arrest, low ones more potent growth arrest. As a reminder, the GI50 is the concentration giving 50% growth inhibition.

As to `COC(=O)C(C/C=C(\C)c1ccc(Cl)cc1)C(C)=O` (stereo unspecified), the TGI is > 100 µM in the test on HCC-2998 colon; > 100 µM with HCT-15 colon; 38.3 µM with HL-60(TB) leukemia; > 100 µM in the test with MCF7 breast; > 100 µM with NCI-H460 lung.

Consider `COC(=O)[C@H](CC(C)C)Nc1c(O)c2c(c(O)c1Cl)C(=O)C=CC2=O`, for which the TGI in the test with BT-549 breast, in the test with HCC-2998 colon, with HCT-15 colon, with HL-60(TB) leukemia, in the test with M14 melanoma and in the test with MDA-MB-231 breast was > 10 µM in each case. Further, the TGI in the test with NCI-H460 lung, in the test on PC-3 prostate and in the test with SR leukemia was > 10 µM each time.

As to `COC(=O)C1(C(=O)OC)N=C(C)OC1/C=C/c1ccccc1` (stereo unspecified), the TGI in the test on BT-549 breast, in the test with HCC-2998 colon, with HCT-15 colon, with HL-60(TB) leukemia, in the test on M14 melanoma and in the test on MCF7 breast was > 100 µM in each case. In addition, the TGI in the test with NCI-H460 lung, with PC-3 prostate and in the test with SR leukemia was > 100 µM each time.

In the case of `Cc1c2ccncc2c(C)c2c1[nH]c1ccc(OCC(F)(F)F)cc12`, the total growth inhibition concentration (TGI) with HCT-15 colon is 2.56 µM; in the test with M14 melanoma, 3.39 µM; in the test with NCI-H460 lung, 2.46 µM; with SR leukemia, 4.2 µM.

Turning to `COC1(O)c2cccc(Cl)c2C(=O)N1C1(C(N)=O)CCCCC1` (stereo unspecified), the TGI with HCC-2998 colon, in the test on HCT-15 colon, in the test on HL-60(TB) leukemia, in the test on MCF7 breast and with NCI-H460 lung was > 100 µM throughout.

In the case of `CSc1nc2c(ncn2C2OCC(O)C(O)C2O)c(=O)n1C` (stereo unspecified), the concentration for total growth inhibition (TGI) with HCC-2998 colon, in the test with HCT-15 colon, with HL-60(TB) leukemia, in the test with MCF7 breast and in the test with NCI-H460 lung was > 100 µM each time.

Regarding `NN1C(=O)C(CCO)S/C1=N/N=C1/SC(CCO)C(=O)N1N` (stereo unspecified), the TGI with HCC-2998 colon, in the test on HCT-15 colon, in the test with HL-60(TB) leukemia, in the test on M14 melanoma, in the test with NCI-H460 lung and with SR leukemia was > 100 µM throughout.

For the compound `COP(=O)(OC)C(O)CC(C)C` (stereo unspecified), the concentration for total growth inhibition (TGI) in the test with HCC-2998 colon, in the test on HL-60(TB) leukemia, in the test with M14 melanoma, with MCF7 breast, in the test on MDA-MB-231 breast and in the test with NCI-H460 lung was > 100 µM in each case. For the same compound, the TGI in the test on PC-3 prostate is > 100 µM.

With `CN1CCN(Cc2ccc(NC(=O)c3cccc(C#Cc4cnc(N)c5ncccc45)c3F)cc2C(F)(F)F)CC1`, the GI50 with BT-549 breast is 3.1 µM; in the test on HCC-2998 colon, 0.834 µM; in the test with HCT-15 colon it was 0.546 µM; in the test with HL-60(TB) leukemia, 1.68 µM; with M14 melanoma, 0.59 µM; in the test with MCF7 breast it was 0.793 µM. For the same compound, the GI50 in the test on MDA-MB-231 breast is 0.773 µM; in the test on NCI-H460 lung, 0.561 µM; with PC-3 prostate, 2.02 µM. In addition, the concentration for total growth inhibition (TGI) with BT-549 breast was 11 µM; in the test with HCC-2998 colon it was 1.6 µM; in the test with HCT-15 colon, 1.35 µM; in the test on HL-60(TB) leukemia it was 18.7 µM; in the test with M14 melanoma, 1.37 µM; in the test with MCF7 breast it was 1.72 µM. For the same compound, the TGI is 1.75 µM with MDA-MB-231 breast, 1.37 µM in the test with NCI-H460 lung and 9.56 µM in the test with PC-3 prostate.

`CSc1ncc2c(n1)sc1c(=O)n(-c3ccccc3)cnc12`: the TGI with BT-549 breast, in the test on HCC-2998 colon, in the test with HCT-15 colon, in the test on M14 melanoma, in the test on MDA-MB-231 breast and in the test on NCI-H460 lung was > 100 µM in each case. For the same compound, the concentration for total growth inhibition (TGI) in the test with PC-3 prostate and in the test with SR leukemia was > 100 µM each time.

Consider `O=C(NCCNCCCNC(=O)c1cc(-c2ccccc2)nc2ccccc12)c1cccc(OCc2ccccc2)c1OCc1ccccc1`, for which the TGI with HCC-2998 colon was 2.59 µM; in the test on HCT-15 colon, 3.25 µM; in the test on HL-60(TB) leukemia, 3.19 µM; in the test on M14 melanoma, 3.1 µM; with MCF7 breast it was 3.1 µM; in the test on MDA-MB-231 breast, 3.21 µM. Moreover, the TGI is 3.8 µM with NCI-H460 lung and 3.04 µM in the test with PC-3 prostate.

On to `COc1cc(C2C(Cl)C(=O)N2NC(=O)c2ccc(N)cc2)cc(Br)c1O` (stereo unspecified), for which the total growth inhibition concentration (TGI) in the test on HCC-2998 colon amounted to 24.3 µM; in the test with HCT-15 colon, 28.8 µM; in the test with HL-60(TB) leukemia, 27.6 µM; in the test on M14 melanoma, 29.2 µM; in the test on NCI-H460 lung, 31.4 µM.

For the compound `COc1ccccc1/C=C1\NC(=S)N(/C=C2\C(=O)Oc3ccccc3C2=O)C1=O`, the TGI with BT-549 breast, in the test with HCC-2998 colon, with HCT-15 colon, in the test with HL-60(TB) leukemia, in the test with M14 melanoma and in the test with MCF7 breast was > 100 µM throughout. Moreover, the TGI with MDA-MB-231 breast, in the test with NCI-H460 lung and in the test with PC-3 prostate was > 100 µM each time.

On to `CC(C)(CCCCC(C)(C)[N+](C)(C)C)[N+](C)(C)C`, for which the TGI in the test with HCC-2998 colon, with HCT-15 colon, with HL-60(TB) leukemia, with M14 melanoma, in the test with MCF7 breast and in the test on MDA-MB-231 breast was > 100 µM throughout. Further, the concentration for total growth inhibition (TGI) in the test on NCI-H460 lung, in the test with PC-3 prostate and in the test with SR leukemia was > 100 µM throughout.

For the compound `Brc1ccc2c(c1)-c1nc3nc4c(cc3cc1CC2)CCc1ccc(Br)cc1-4`, the TGI in the test on BT-549 breast, in the test on HCC-2998 colon, in the test on HCT-15 colon, in the test on M14 melanoma, with MCF7 breast and in the test on MDA-MB-231 breast was > 100 µM each time. The TGI with NCI-H460 lung and in the test on PC-3 prostate was > 100 µM each time.

For the compound `COc1ccc(C(=O)C(c2ccc(OCc3ccccc3)cc2)c2ccc(OCc3ccccc3)cc2)cc1`, the TGI in the test on HCC-2998 colon, in the test on HCT-15 colon, in the test with HL-60(TB) leukemia, with M14 melanoma, in the test with NCI-H460 lung and with SR leukemia was > 100 µM throughout.
